Where “and” joins values, the source holds several entries; their conditions need not be identical. Identical values can stand only once. Calls of active or inactive are those of the source.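 How the source made its calls: active means fitted half-maximal concentration for change in GFP expression of 33 µM or less; inactive means the rest.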

Here are results for 58 compounds from PubChem BioAssay AID2743 (NMMLSC, 2010).

This assay in a line: concentration-dependent AGP1-GFP change, TOR pathway – cell-based, flow cytometry, S. cerevisiae, MLPCN hits, dose response (AID 2743). As to conditions: S. cerevisiae AGP1-GFP strain, flow cytometry GFP, 3 h; at 33 µM (top of the series).
`COc1ccc(N2C(=O)C(Cl)=C(Nc3c(C)n(C)n(-c4ccccc4)c3=O)C2=O)cc1`: the GFP fluorescence (kMESF) is 36.2 kMESF (inactive).

`CC1=NOC(=O)/C1=C\c1ccc(-c2cc(Cl)ccc2Cl)o1`: the GFP fluorescence (kMESF) is 42.3 kMESF (inactive).

Take `Cc1nn2c(-c3ccncc3)nnc2c2ccccc12`: the GFP fluorescence (kMESF) was 22.9 kMESF (inactive).

In the case of `O=C(Oc1c(Cl)cc(Cl)c2cccnc12)c1cccc([N+](=O)[O-])c1`, the GFP fluorescence (kMESF) is 34.3 kMESF (inactive).

For the compound `CCN1/C(=C/c2ccc3cc(C)ccc3[n+]2CC)Sc2ccc3sccc3c21`, the GFP fluorescence (kMESF) was 43.3 kMESF (inactive).

With `Oc1ccc(CNc2ccccc2)c2cccnc12`, the GFP fluorescence (kMESF) is 36.5 kMESF (inactive).

In the case of `C/C(=N\NC(=O)c1cccc(Br)c1)c1ccccn1`, the GFP fluorescence (kMESF) is 42.1 kMESF (inactive).

On to `Cc1ccc2nc(Cl)c3nnnn3c2c1`, for which the GFP fluorescence (kMESF) was 33.8 kMESF (inactive).

For `O=C1ON=C(c2ccc(Cl)cc2)/C1=C/c1ccc(O)cc1`, the GFP fluorescence (kMESF) is 23.3 kMESF (inactive).

Regarding `O=C(/C=C/c1ccccn1)c1ccc(Br)cc1O`, the GFP fluorescence (kMESF) was 20.4 kMESF (inactive).

Turning to `COc1ccc(NC(=O)/C(Cl)=C(/Cl)S(=O)Cc2ccccc2)cn1` (stereo not drawn), the GFP fluorescence (kMESF) is 38.3 kMESF (inactive).

Consider `O=C1NC(=O)N(CCc2ccc(F)cc2)C(=O)/C1=C/c1cccs1`, for which the GFP fluorescence (kMESF) is 39.1 kMESF (inactive).

As for `Cc1ccc(-c2nc(N)c3c(-c4ccc(C)cc4)nn(C(C)(C)C)c3n2)cc1`, the GFP fluorescence (kMESF) was 38.4 kMESF (inactive).

With `CCCCc1ccc(/C=C2/C(=O)ON=C2c2ccccc2)s1`, the GFP fluorescence (kMESF) is 38.4 kMESF (inactive).

As for `O=C(OCC(=O)N1CCN(C(=O)c2ccco2)CC1)c1cc(-c2ccc(F)cc2)nc2ccccc12`, the GFP fluorescence (kMESF) was 49.9 kMESF (inactive) and 40 kMESF (inactive).

With `O=C(NC(=S)NNC(=O)c1ccc(Cl)cc1Cl)c1cccnc1`, the GFP fluorescence (kMESF) was 26.1 kMESF (inactive).

`CCOC(=O)CSC1=NC(=O)/C(=C\c2ccc(Cl)cc2)S1`: the GFP fluorescence (kMESF) is 41.8 kMESF (inactive).

Turning to `COc1cccc(/C=C2\SC(=S)N(CCCC(=O)Nc3ccc(C(=O)O)cc3)C2=O)c1`, the GFP fluorescence (kMESF) was 34.8 kMESF (inactive).

On to `Clc1cnc(N/N=C/c2cccs2)c(Cl)c1`, for which the GFP fluorescence (kMESF) is 40.5 kMESF (inactive).

As to `N/C(Cc1ccc(Cl)c(Cl)c1)=N\OC(=O)c1cccs1`, the GFP fluorescence (kMESF) was 29.8 kMESF (inactive).

Take `CC(Oc1ccc(Cl)cc1)C(=O)NNC(=S)NC(=O)c1ccco1` (stereo not drawn): the GFP fluorescence (kMESF) is 34.2 kMESF (inactive).

As for `O=c1oc2ccccc2c(O)c1[C@H]1c2ccc(O)cc2Oc2c1c(=O)oc1ccccc21`, the GFP fluorescence (kMESF) was 36.3 kMESF (inactive).

With `CSc1nnc2c3cc(F)ccc3n(C)c2n1`, the GFP fluorescence (kMESF) is 25.3 kMESF (inactive).

For the compound `O=C(CCc1ccccc1)NNC(=S)NC(=O)c1ccccc1`, the GFP fluorescence (kMESF) was 50.8 kMESF (inactive).

With `Cc1cc(C)nc(S/C=C/C(=O)c2ccccc2)n1`, the GFP fluorescence (kMESF) is 44.8 kMESF (inactive).

On to `Cc1ccc(NC(=O)c2ccc(Cl)c(N3C(=O)C=CC3=O)c2)cc1`, for which the GFP fluorescence (kMESF) is 27.1 kMESF (inactive).

`Cc1ccc(NC(=O)c2cc(N3C(=O)C=CC3=O)ccc2Cl)cc1C`: the GFP fluorescence (kMESF) was 23.9 kMESF (inactive).

Regarding `O=C(Nc1nnc(-c2ccc(Cl)cc2)o1)c1ccccc1Br`, the GFP fluorescence (kMESF) is 28.4 kMESF (inactive).

Regarding `COC(=O)CCCC1=CC2=CC(=O)C(C)(OC(=O)CCc3ccccc3)C(=O)C2=CO1` (stereo not drawn), the GFP fluorescence (kMESF) is 29.2 kMESF (inactive).

Take `Oc1ccc(N=Nc2ccccc2)o1`: the GFP fluorescence (kMESF) is 49 kMESF (inactive).

On to `Cc1[nH]n(-c2ncc(-c3ccccc3)s2)c(=O)c1C(c1ccc(Cl)cc1)C(C#N)C#N` (stereo not drawn), for which the GFP fluorescence (kMESF) was 40.6 kMESF (inactive).

`Cc1cc(Br)c2c(c1)/C(=C/C(=O)c1cccs1)C(=O)N2`: the GFP fluorescence (kMESF) is 38.7 kMESF (inactive).

Take `Cc1c(C(=O)Nc2nc(-c3ccccn3)cs2)oc2ccccc12`: the GFP fluorescence (kMESF) is 35.6 kMESF (inactive).

As for `COc1cc(/C=C2/C(=O)c3cccc([N+](=O)[O-])c3C2=O)c(Br)cc1O`, the GFP fluorescence (kMESF) was 32.9 kMESF (inactive).

As to `CCCc1cc(NCc2ccccn2)n2nc(C)c(-c3ccccc3)c2n1`, the GFP fluorescence (kMESF) is 40.4 kMESF (inactive).

As for `Cc1ccccc1[C@]1(C)ON(c2ccccc2C(F)(F)F)C1=O`, the GFP fluorescence (kMESF) was 34.6 kMESF (inactive).

Consider `COc1ccc(N2C(=O)CC(Sc3ncn[nH]3)C2=O)c(OC)c1` (stereo not drawn), for which the GFP fluorescence (kMESF) was 36.2 kMESF (inactive).

On to `O=C(Oc1c(Cl)cc(Cl)c2cccnc12)c1cccs1`, for which the GFP fluorescence (kMESF) is 25.9 kMESF (inactive).

As for `O=[N+]([O-])c1ccc(S(=O)(=O)c2ccccc2)nc1`, the GFP fluorescence (kMESF) is 44.6 kMESF (inactive).

Regarding `COc1ccc(C2=CC3=C(Br)C(=O)C(C)(O)C(=O)C3=CO2)cc1` (stereo not drawn), the GFP fluorescence (kMESF) is 2.12 kMESF (inactive).

In the case of `O=C1N(c2ccccc2C(F)(F)F)O[C@@]1(c1ccccc1)C1CCCC1`, the GFP fluorescence (kMESF) is 38.4 kMESF (inactive).

Consider `N#Cc1c2ccc([N+](=O)[O-])cc2[n+]([O-])n1-c1ccccc1`, for which the GFP fluorescence (kMESF) is 27.6 kMESF (inactive).

As to `COc1ccc(-c2cc3nc4n(c(=O)c3s2)CCC4)cc1`, the GFP fluorescence (kMESF) was 23.3 kMESF (inactive).

Regarding `CCc1ccc(C(=O)/C=C/c2ccc([N+](=O)[O-])o2)cc1`, the GFP fluorescence (kMESF) is 49.5 kMESF (inactive).

In the case of `On1ccccc1=S`, the GFP fluorescence (kMESF) is 35.2 kMESF (inactive).

As for `O=C1C(Cl)=C(Nc2ccccc2O)C(=O)N1c1ccccc1`, the GFP fluorescence (kMESF) is 38.4 kMESF (inactive).

As for `Cc1cc2ccccn2c1C(=O)c1ccc([N+](=O)[O-])o1`, the GFP fluorescence (kMESF) is 26 kMESF (inactive).

Regarding `Cc1[nH][nH]c(=O)c1C(c1ccc(-c2ccc(Cl)c(Cl)c2)o1)c1c(C)[nH][nH]c1=O`, the GFP fluorescence (kMESF) is 43.7 kMESF (inactive).

With `Cc1ccc(N2C(=O)CC(Sc3ncn[nH]3)C2=O)cc1C` (stereo not drawn), the GFP fluorescence (kMESF) is 49.6 kMESF (inactive).

Consider `CCOC(=O)CSC1=NC(=O)/C(=C/c2ccc(OC)cc2)S1`, for which the GFP fluorescence (kMESF) is 43.4 kMESF (inactive).

`COc1ccc(Cl)cc1C(Nc1cccnc1)c1ccc2cccnc2c1O` (stereo not drawn): the GFP fluorescence (kMESF) is 36.3 kMESF (inactive).

As for `CCc1nc2ccccc2c(=O)n1NC(=O)c1c(O)c2cccc3c2n(c1=O)CCC3`, the GFP fluorescence (kMESF) is 18.3 kMESF (inactive).

On to `O=C1c2cccc3c([N+](=O)[O-])ccc(c23)C(=O)N1CCc1ccccn1`, for which the GFP fluorescence (kMESF) is 44.1 kMESF (inactive).

Turning to `COc1cccc(/C=N/Nc2ncc(C(F)(F)F)cc2Cl)c1O`, the GFP fluorescence (kMESF) is 34.3 kMESF (inactive).

On to `C=CCN1C(=O)/C(=C/c2ccc(-c3ccc(F)cc3)o2)SC1=S`, for which the GFP fluorescence (kMESF) was 35.3 kMESF (inactive).

Consider `O=c1[nH]c(-c2ccccn2)nc(C(F)(F)F)c1Br`, for which the GFP fluorescence (kMESF) is 36.9 kMESF (inactive).

For the compound `O=C(Nc1cccc(-c2csc(Nc3ccccc3)n2)c1)c1ccccc1`, the GFP fluorescence (kMESF) is 31 kMESF (inactive).

`CC[C@H](C)/C=C(C)/C=C/C1=CC2=C(Cl)C(=O)[C@@](C)(OC(C)=O)C(=O)C2=CO1`: the GFP fluorescence (kMESF) is 1.57 kMESF (inactive).
